Data published in patent US20240124427A1, “HYDROXYHETEROCYCLOALKANE-CARBAMOYL DERIVATIVES” (Idorsia Pharmaceuticals Ltd, priority 2021, published 2024).

The compounds below were run against human Gal-3 (hGal-3) (Homo sapiens (Human), UniProt P17931) (assay: Competitive binding assay: biotinylated hGal-3 binding to microplate-adsorbed asialofetuin (ASF)). Conditions: Activity on hGal-3; mean values of several measurements; mixture of diastereomers measured where not separated.
Outline: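 Biotinylated human Gal-3 binding to plate-adsorbed asialofetuin, competed by compound, 3 h at 4 °C. Bound protein detected with streptavidin-peroxidase (1 h, 4 °C) and ABTS substrate. IC50 reported as mean of several measurements.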

human Gal-3 (hGal-3), sequence (P17931 whole entry): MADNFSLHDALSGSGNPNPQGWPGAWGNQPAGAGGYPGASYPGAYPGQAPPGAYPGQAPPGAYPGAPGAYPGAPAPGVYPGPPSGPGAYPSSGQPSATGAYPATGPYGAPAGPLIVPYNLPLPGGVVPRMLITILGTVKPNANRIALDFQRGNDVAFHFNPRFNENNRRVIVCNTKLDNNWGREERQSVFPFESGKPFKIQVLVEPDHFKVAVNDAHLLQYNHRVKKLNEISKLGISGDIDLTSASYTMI

SMILES	IC50 [nM]
CO[C@@H]1[C@@H](n2cc(-c3cc(F)c(F)c(F)c3)nn2)[C@@H](O)[C@@H](CO)O[C@H]1C(=O)N(c1cc(Br)cc(C#N)c1)[C@H]1CNC[C@@H]1O [Example 60, (2R,3R,4S,5R,6R)-N-(3-bromo-5-cyanophenyl)-5-hydroxy-6-(hydroxymethyl)-N-((3S,4S)-4-hydroxypyrrolidin-3-yl)-3-methoxy-4-(4-(3,4,5-trifluorophenyl)-1H-1,2,3-triazol-1-yl)tetrahydro-2H-pyran-2-carboxamide]	51
CO[C@@H]1[C@@H](n2cc(-c3cc(F)c(F)c(F)c3)nn2)[C@@H](O)[C@@H](CO)O[C@H]1C(=O)N(c1cc(C)cc(Br)c1)[C@H]1CNC[C@@H]1O [Example 61, (2R,3R,4S,5R,6R)-N-(3-bromo-5-methylphenyl)-5-hydroxy-6-(hydroxymethyl)-N-((3S,4S)-4-hydroxypyrrolidin-3-yl)-3-methoxy-4-(4-(3,4,5-trifluorophenyl)-1H-1,2,3-triazol-1-yl)tetrahydro-2H-pyran-2-carboxamide]	26
CO[C@@H]1[C@@H](n2cc(-c3ccc(C)c(F)c3F)nn2)[C@@H](O)[C@@H](CO)O[C@H]1C(=O)N(c1cc(Cl)cc(Cl)c1)[C@H]1CNC[C@@H]1O [Example 63, (2R,3R,4S,5R,6R)-N-(3,5-dichlorophenyl)-4-(4-(2,3-difluoro-4-methylphenyl)-1H-1,2,3-triazol-1-yl)-5-hydroxy-6-(hydroxymethyl)-N-((3S,4S)-4-hydroxypyrrolidin-3-yl)-3-methoxytetrahydro-2H-pyran-2-carboxamide]	24
CO[C@@H]1[C@@H](n2cc(-c3ccc(C)c(F)c3F)nn2)[C@@H](O)[C@@H](CO)O[C@H]1C(=O)N(c1cc(C)cc(Br)c1)[C@H]1CNC[C@@H]1O [Example 64, (2R,3R,4S,5R,6R)-N-(3-bromo-5-methylphenyl)-4-(4-(2,3-difluoro-4-methylphenyl)-1H-1,2,3-triazol-1-yl)-5-hydroxy-6-(hydroxymethyl)-N-((3S,4S)-4-hydroxypyrrolidin-3-yl)-3-methoxytetrahydro-2H-pyran-2-carboxamide]	25
CO[C@@H]1[C@@H](n2cc(-c3ccc(Cl)c(Cl)c3)nn2)[C@@H](O)[C@@H](CO)O[C@H]1C(=O)N(c1cc(Cl)cc(Cl)c1)[C@H]1CNC[C@@H]1O [Example 65, (2R,3R,4S,5R,6R)-N-(3,5-dichlorophenyl)-4-(4-(3,4-dichlorophenyl)-1H-1,2,3-triazol-1-yl)-5-hydroxy-6-(hydroxymethyl)-N-((3S,4S)-4-hydroxypyrrolidin-3-yl)-3-methoxytetrahydro-2H-pyran-2-carboxamide]	54
CO[C@@H]1[C@@H](n2cc(-c3cc(F)c(F)c(F)c3)nn2)[C@@H](O)[C@@H](CO)O[C@H]1C(=O)N(c1cc(Cl)cc(Cl)c1)[C@@H]1CNC[C@H]1O [Example 66, (2R,3R,4S,5R,6R)-N-(3,5-dichlorophenyl)-5-hydroxy-6-(hydroxymethyl)-N-((3R,4R)-4-hydroxypyrrolidin-3-yl)-3-methoxy-4-(4-(3,4,5-trifluorophenyl)-1H-1,2,3-triazol-1-yl)tetrahydro-2H-pyran-2-carboxamide]	182
CO[C@@H]1[C@@H](n2cc(-c3cc(F)c(F)c(F)c3)nn2)[C@@H](O)[C@@H](CO)O[C@H]1C(=O)N(c1cc(Br)cc(C#N)c1)[C@@H]1CNC[C@H]1O [Example 67, (2R,3R,4S,5R,6R)-N-(3-bromo-5-cyanophenyl)-5-hydroxy-6-(hydroxymethyl)-N-((3R,4R)-4-hydroxypyrrolidin-3-yl)-3-methoxy-4-(4-(3,4,5-trifluorophenyl)-1H-1,2,3-triazol-1-yl)tetrahydro-2H-pyran-2-carboxamide]	129
CO[C@@H]1[C@@H](n2cc(-c3cc(F)c(F)c(F)c3)nn2)[C@@H](O)[C@@H](CO)O[C@H]1C(=O)N(c1cc(C)cc(Br)c1)[C@@H]1CNC[C@H]1O [Example 68, (2R,3R,4S,5R,6R)-N-(3-bromo-5-methylphenyl)-5-hydroxy-6-(hydroxymethyl)-N-((3R,4R)-4-hydroxypyrrolidin-3-yl)-3-methoxy-4-(4-(3,4,5-trifluorophenyl)-1H-1,2,3-triazol-1-yl)tetrahydro-2H-pyran-2-carboxamide]	222
CO[C@@H]1[C@@H](n2cc(-c3ccc(C)c(F)c3F)nn2)[C@@H](O)[C@@H](CO)O[C@H]1C(=O)N(c1cc(C)cc(Br)c1)[C@@H]1CNC[C@H]1O [Example 69, (2R,3R,4S,5R,6R)-N-(3-bromo-5-methylphenyl)-4-(4-(2,3-difluoro-4-methylphenyl)-1H-1,2,3-triazol-1-yl)-5-hydroxy-6-(hydroxymethyl)-N-((3R,4R)-4-hydroxypyrrolidin-3-yl)-3-methoxytetrahydro-2H-pyran-2-carboxamide]	38
CO[C@@H]1[C@@H](n2cc(-c3cc(F)c(F)c(F)c3)nn2)[C@@H](O)[C@@H](CO)O[C@H]1C(=O)N(c1cc(Cl)cc(Cl)c1)[C@H]1CN(C(C)=O)C[C@@H]1O [Example 71, (2R,3R,4S,5R,6R)-N-((3S,4S)-1-acetyl-4-hydroxypyrrolidin-3-yl)-N-(3,5-dichlorophenyl)-5-hydroxy-6-(hydroxymethyl)-3-methoxy-4-(4-(3,4,5-trifluorophenyl)-1H-1,2,3-triazol-1-yl)tetrahydro-2H-pyran-2-carboxamide]	36
CO[C@@H]1[C@@H](n2cc(-c3cc(F)c(F)c(F)c3)nn2)[C@@H](O)[C@@H](CO)O[C@H]1C(=O)N(c1cc(C)cc(Br)c1)[C@H]1CN(C(C)=O)C[C@@H]1O [Example 72, (2R,3R,4S,5R,6R)-N-((3S,4S)-1-acetyl-4-hydroxypyrrolidin-3-yl)-N-(3-bromo-5-methylphenyl)-5-hydroxy-6-(hydroxymethyl)-3-methoxy-4-(4-(3,4,5-trifluorophenyl)-1H-1,2,3-triazol-1-yl)tetrahydro-2H-pyran-2-carboxamide]	26
CO[C@@H]1[C@@H](n2cc(-c3ccc(Br)c(F)c3F)nn2)[C@@H](O)[C@@H](CO)O[C@H]1C(=O)N(c1cc(Cl)cc(Cl)c1)[C@H]1CN(C(C)=O)C[C@@H]1O [Example 73, (2R,3R,4S,5R,6R)-N-((3S,4S)-1-acetyl-4-hydroxypyrrolidin-3-yl)-4-(4-(4-bromo-2,3-difluorophenyl)-1H-1,2,3-triazol-1-yl)-N-(3,5-dichlorophenyl)-5-hydroxy-6-(hydroxymethyl)-3-methoxytetrahydro-2H-pyran-2-carboxamide]	23
CO[C@@H]1[C@@H](n2cc(-c3cc(F)c(C)c(F)c3)nn2)[C@@H](O)[C@@H](CO)O[C@H]1C(=O)N(c1cc(Br)cc(Br)c1)[C@H]1CN(C(C)=O)C[C@@H]1O [Example 74, (2R,3R,4S,5R,6R)-N-((3S,4S)-1-acetyl-4-hydroxypyrrolidin-3-yl)-N-(3,5-dibromophenyl)-4-(4-(3,5-difluoro-4-methylphenyl)-1H-1,2,3-triazol-1-yl)-5-hydroxy-6-(hydroxymethyl)-3-methoxytetrahydro-2H-pyran-2-carboxamide]	27
CO[C@@H]1[C@@H](n2cc(-c3cc(F)c(C)c(F)c3)nn2)[C@@H](O)[C@@H](CO)O[C@H]1C(=O)N(c1cc(C)cc(Br)c1)[C@H]1CN(C(C)=O)C[C@@H]1O [Example 75, (2R,3R,4S,5R,6R)-N-((3S,4S)-1-acetyl-4-hydroxypyrrolidin-3-yl)-N-(3-bromo-5-methylphenyl)-4-(4-(3,5-difluoro-4-methylphenyl)-1H-1,2,3-triazol-1-yl)-5-hydroxy-6-(hydroxymethyl)-3-methoxytetrahydro-2H-pyran-2-carboxamide]	22
